Reference: PubChem BioAssay (NCI)
≈ marks a conversion by molar mass, not a printed value.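 Exposure lasted 48 hours, with cells grown in 96-well plates and compounds tested at five concentrations. GI50 marks 50% less growth. The concentration for full growth arrest is given as TGI.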

What was measured:
Assay in all cases: NCI tumour cell line growth inhibition, 48 h
A498 renal = system: A498 renal
HCC-2998 colon = system: HCC-2998 colon
HOP-92 NSCLC = system: HOP-92 NSCLC
UACC-257 melanoma = system: UACC-257 melanoma
CCRF-CEM leukemia = system: CCRF-CEM leukemia
EKVX NSCLC = system: EKVX NSCLC
M14 melanoma = system: M14 melanoma
SK-MEL-5 melanoma = system: SK-MEL-5 melanoma
UACC-62 melanoma = system: UACC-62 melanoma
MDA-MB-435 = system: MDA-MB-435

SMILES | GI50 (A498 renal) | TGI (A498 renal) | GI50 (HCC-2998 colon) | TGI (HCC-2998 colon) | GI50 (HOP-92 NSCLC) | TGI (HOP-92 NSCLC) | GI50 (UACC-257 melanoma) | TGI (UACC-257 melanoma) | GI50 (CCRF-CEM leukemia) | TGI (CCRF-CEM leukemia) | GI50 (EKVX NSCLC) | TGI (EKVX NSCLC) | TGI (M14 melanoma) | TGI (SK-MEL-5 melanoma) | TGI (UACC-62 melanoma) | TGI (MDA-MB-435)
Cc1c2ccncc2c(C)c2c1[nH]c1ccc(O)cc12 | 0.501 µg/mL | 1.9 µg/mL | 0.261 µg/mL (≈ 0.996 µM) | 1.63 µg/mL | 0.0448 µg/mL (≈ 0.171 µM) | 0.579 µg/mL | 0.267 µg/mL (≈ 1.02 µM) | 1.12 µg/mL | 0.0158 µg/mL | 0.31 µg/mL | 0.0921 µg/mL | 0.273 µg/mL |  |  |  | 
CSC(SC)=C(C#N)C(=O)Nc1ccc(Cl)cc1 |  | 90.4 µM |  | > 100 µM |  |  |  | > 100 µM |  | 74.9 µM |  | > 100 µM | > 100 µM | > 100 µM | > 100 µM | > 100 µM
O=C(CC(C(=O)c1ccsc1)c1cccs1)c1cccs1 (stereo not drawn) |  | > 100 µM |  | > 100 µM |  | > 100 µM |  | > 100 µM |  | > 100 µM |  | > 100 µM | > 100 µM | 85.6 µM | > 100 µM | 
CCC(C)C(NC(=O)c1cccc2c(=O)c3ccccc3[nH]c12)C(=O)O (stereo not drawn) |  | > 100 µM |  |  |  | > 100 µM |  |  |  | > 100 µM |  | > 100 µM | > 100 µM | > 100 µM | > 100 µM | > 100 µM
C=CC[PH+](c1ccccc1)c1ccccc1.C=CC[PH+](c1ccccc1)c1ccccc1.[Pt+2].[S-]c1nc2ccccc2[nH]1.[S-]c1nc2ccccc2[nH]1 | 1.72 µM | 4.98 µM |  |  |  |  |  |  | 1.9 µM | > 100 µM | 2.36 µM | > 100 µM |  |  |  | 
CN1N=C(c2ccncc2)OC1c1ccc(C(F)(F)F)cc1 (stereo not drawn) |  | > 100 µM |  | > 100 µM |  |  |  | > 100 µM |  | > 100 µM |  | > 100 µM | > 100 µM | > 100 µM | > 100 µM | > 100 µM
O=C(O)c1ccccc1Sc1ccc(C=C2NC(=S)N(c3ccccc3)C2=O)s1 |  | > 100 µM |  | > 100 µM |  |  |  | > 100 µM |  |  |  | > 100 µM |  | > 100 µM | > 100 µM | > 100 µM
Clc1ccc(Cc2nc3cc(Cl)c(Cl)cc3n2CC2CCCN3CCCCC23)cc1 (stereo not drawn) |  | 27.5 µM |  | 14.6 µM |  | 24.9 µM |  | 13 µM |  |  |  | 23 µM | 7.95 µM | 23.3 µM | 21.2 µM | 40.4 µM
C=CCSC1=N/C(=C\c2ccc(C)cc2)C(=O)N1CC=C |  | 51.8 µM |  | 74.3 µM |  | 57.5 µM |  | 59.8 µM |  |  |  | 34.1 µM | > 100 µM | 27.3 µM | > 100 µM | 98.8 µM
CCN(CC)C(=O)N[C@@H](CC(C)C)C(=O)NC |  | > 100 µM |  | > 100 µM |  |  |  |  |  | > 100 µM |  | > 100 µM | > 100 µM | > 100 µM | > 100 µM | > 100 µM
COC(OC)c1cccc2c1C(=O)CCC1(CC2)OCCCCO1 |  | > 100 µM |  | > 100 µM |  |  |  | > 100 µM |  | > 100 µM |  |  | > 100 µM | > 100 µM | > 100 µM | 
CN(CCNC(=O)c1nn(C)c2c1Cc1ccccc1-2)CCNC(=O)c1nn(C)c2c1Cc1ccccc1-2 |  | 28.7 µM |  | 25.5 µM |  | 29.3 µM |  | 27.5 µM |  |  |  | 72.8 µM | 26.5 µM | 24.5 µM | 28.7 µM | 31.1 µM
O=C1c2ccccc2CC12Cc1ccc3c(c1C2=O)CCCC3 (stereo not drawn) |  | > 100 µM |  | > 100 µM |  |  |  | > 100 µM |  | > 100 µM |  | > 100 µM | > 100 µM | > 100 µM | > 100 µM | > 100 µM
CCN(CC)C(=O)Cc1[nH][nH]c(=O)c1C(=O)N(CC)CC |  | > 100 µM |  | > 100 µM |  | > 100 µM |  | > 100 µM |  | > 100 µM |  | > 100 µM | > 100 µM |  | > 100 µM | 
CN1C/C(=C\c2ccccc2)C2=NN(C(N)=S)[C@H](c3ccccc3)[C@@H]2C1 |  | > 100 µM |  | > 100 µM |  | > 100 µM |  | > 100 µM |  | > 100 µM |  | > 100 µM | > 100 µM |  | > 100 µM | 
CCCCCCCC(=O)NC(C)(C)C(=O)NCC(=O)NC(CC(C)C)C(=O)NC(C)(C)C(=O)NCC(=O)NCC(=O)NC(CC(C)C)C(=O)NC(C)(C)C(=O)NCC(=O)NC(C(=O)NC(CO)CC(C)C)C(C)CC (stereo not drawn) |  |  |  | 7.71 µM |  | 6.36 µM |  | 7.96 µM |  | 11.7 µM |  | 6.91 µM | 7.62 µM | 7.19 µM | 7.54 µM | 8.24 µM
C[N+]1(CC[N+]2(C)CCCC2c2cccnc2)CCCC1c1cccnc1 (stereo not drawn) |  | > 100 µM |  | > 100 µM |  | > 100 µM |  | > 100 µM |  |  |  | 86.9 µM | > 100 µM | > 100 µM | > 100 µM | > 100 µM
O=S(c1ccc(O)cc1)c1ccc(O)cc1 |  |  |  | > 100 µM |  | > 100 µM |  | > 100 µM |  | > 100 µM |  | > 100 µM | > 100 µM | > 100 µM | > 100 µM | 
CC(=O)OC1COC(N2C(=O)C(=O)c3ccccc32)C(OC(C)=O)C1OC(C)=O (stereo not drawn) |  | > 100 µM |  | > 100 µM |  | > 100 µM |  | > 100 µM |  | > 100 µM |  | > 100 µM | > 100 µM | > 100 µM | > 100 µM | 
C/C(=C\COP(=O)(O)OP(=O)(O)O)CC/C=C(\C)CNc1c(F)c(F)c(F)c(F)c1F |  |  |  | > 100 µM |  | > 100 µM |  | > 100 µM |  | 1.26 µM |  | > 100 µM | > 100 µM | > 100 µM | > 100 µM | > 100 µM
CCCC(O)c1ccc2[nH]c3c(C)cc([N+](=O)[O-])c(C)c3c2c1 (stereo not drawn) |  |  |  | > 100 µM |  |  |  | > 100 µM |  | > 100 µM |  | > 100 µM | > 100 µM | > 100 µM |  | 
Cc1cc2c3ccccc3n3c2c2c1OC1(C)CCC(C2C1)C3(C)C (stereo not drawn) |  |  |  | > 25 µM |  | > 25 µM |  |  |  | > 25 µM |  |  | > 25 µM | > 25 µM | > 25 µM | 
O=C1CC2(CCN(Cc3ccccc3)CC2)C(=O)N1N1CCCCC1 |  | > 100 µM |  |  |  |  |  | > 100 µM |  |  |  |  | > 100 µM | > 100 µM | > 100 µM | > 100 µM
CC(C)C(Sc1nc(N)nc2nc[nH]c12)C(=O)O (stereo not drawn) |  | > 100 µM |  | > 100 µM |  |  |  | > 100 µM |  | > 100 µM |  | > 100 µM | > 100 µM | > 100 µM | > 100 µM | > 100 µM
